# According to US20250387385A1, “TREATMENT FOR GLOMERULAR DISEASES” (ZYDUS Lifesciences Limited, priority 2022, published 2025):
# Key:
# LPS treated mice = assay: LPS-induced nephritis in C57 mice; type: in vivo; details: serum 24 h after LPS, oral, formula (Ia) 15 mg/kg, Iptacopan 20 mg/kg twice a day; for Serum creatinine (reduction): reduction against LPS treated mice; for Serum urea (reduction): reduction compared with LPS treated mice
# Description: Single dose of lipopolysachharide (LPS)-induced acute nephritis was generated in C57 mice and the effect of compound of formula (Ia) and combination as shown below. Male C57 mice were treated with vehicle/compound of formula (Ia) (15 mg/kg) and combination of compound of formula (Ia) (15 mg/kg) and Iptacopan (20 mg/kg, twice a day) by oral route. These mice were bled after 24 h of LPS treatment and serum was obtained. The creatinine and urea levels were measured in the serum.
# 5/6 nephrectomized rat = assay: 5/6 nephrectomy induced renal dysfunction in male SD rats; type: in vivo; details: 5/6 nephrectomized SD rats, 15 mg/kg for four weeks
# Description: Male SD rats will be operated for 5/6 nephrectomy to induce the focal segmental glomerulosclerosis. After a week of recovery, animals were treated with compound of formula (Ia). The randomized rats were treated with compound of formula (Ia) (15 mg/kg) for four weeks. At the end of treatment serum creatinine, serum urea and urine microalbumin was measured.
# doxorubicin treated mice = assay: Doxorubicin-induced glomerulosclerosis in male Balb/c mice; type: in vivo; details: reduction against doxorubicin treated animals, 24 h urine, oral, two weeks, formula (Ia) 15 mg/kg, Fimasartan 15 mg/kg
# Description: Male Balb/c mice were treated with doxorubicin (10 mg/kg, IV). After 5 weeks of treatment, mice were randomized based on protein excretion urine into four groups: Doxorubicin, compound of formula (Ia) (15 mg/kg) and combination of compound of formula (Ia) (15 mg/kg) and Fimasartan (15 mg/kg) by oral route. The treatment continued for two weeks. These mice kept in metabolic cage and 24 h urine protein excretion was measured.
# BSA treated mice = assay: Cationic bovine serum albumin (cBSA) induced nephritis in male C57 mice; type: in vivo; details: reduction against BSA treated mice, 24 h urine on 11th day, oral, 10 days, formula (Ia) 15 mg/kg, Iptacopan 20 mg/kg BID
# Description: Male C57 mice were treated with bovine serum albumin (BSA) at 2, 4, 6, 8 and 10 mg/kg on day 1, 2, 3, 4, and 5 days by intraperitoneal route, respectively. The BSA at 10 mg/kg was treated for next 5 days. On the same day, mice were treated with either vehicle/compound of formula (Ia) (15 mg/kg) and combination of compound of formula (Ia) (15 mg/kg) and Iptacopan (20 mg/kg, BID) by oral route and continued for 10 days. On 11th day mice kept in metabolic cage and 24 h urine protein excretion was measured.
# db/db mice = assay: Diabetes induced renal dysfunction in db/db mice; type: in vivo; details: one kidney removed, 15 mg/kg for eight weeks; for Urine microalbumin (reduction): reduction against diabetic mice
# Description: For inducing diabetes-induced renal dysfunction, one kidney was removed from male db/db mice and they were treated with compound of formula (Ia) and combination for 8 weeks. At the end of treatment, renal dysfunction was estimated. Histological change in renal disease was also accessed with biochemical changes in serum and urine. Male db/db mice were randomized and were treated with compound of formula (Ia) (15 mg/kg) for eight weeks. At the end of treatment serum creatinine, serum urea and urine microalbumin was measured.
# ischemia condition = details: reference 12, cited from earlier work
# HIF = details: animal model of anemia; reference 10; cited from earlier work
# hemoglobin = details: clinical trials; reference 11; cited from earlier work
# [1] = listed as compound of formula (Ia)
# [2] = listed as Compound of formula (Ia)
smiles,measurement,setting,value
"O=C(O)CNC(=O)c1c(O)c2ccccc2n(OCC2CC2)c1=O [Formula (Ia), Desidustat]",Serum creatinine (reduction),LPS treated mice,34.1 ± 5.2%
same,Serum creatinine (reduction),LPS treated mice; [1],34.1±5.2%
same,Serum urea (reduction),LPS treated mice,44.9 ± 5.2%
same,Serum urea (reduction),LPS treated mice; [1],44.9 ± 5.2%
same,Microalbumin (reduction of urinary excretion),5/6 nephrectomized rat,35.9 ± 12.0%
same,Serum creatinine (reduction),5/6 nephrectomized rat,14.9 ± 3.2%
same,Serum urea (reduction),5/6 nephrectomized rat,15.9 ± 8.8%
same,Microalbumin (reduction of urinary excretion),5/6 nephrectomized rat; [2],35.9±12.0%
same,Serum creatinine (reduction),5/6 nephrectomized rat; [2],14.9±3.2%
same,Serum urea (reduction),5/6 nephrectomized rat; [2],15.9±8.8%
same,Urine total protein (reduction),doxorubicin treated mice,47.8 ± 5.8%
same,Urine total protein (reduction),doxorubicin treated mice; [1],47.8±5.8%
same,Urine total protein (reduction),BSA treated mice,40.1 ± 7.6%
same,Urine total protein (reduction),BSA treated mice; [2],40.1±7.6%
same,Serum creatinine (reduction),db/db mice,28.4 ± 4.4%
same,Serum urea (reduction),db/db mice,25.8 ± 4.8%
same,Serum creatinine (reduction),db/db mice; [2],28.4±4.4%
same,Serum urea (reduction),db/db mice; [2],25.8±4.8%
same,Urine microalbumin (reduction),db/db mice,50.2 ± 3.2%
same,Urine microalbumin (reduction),db/db mice; [2],50.2±3.2%
same,IL-1β levels,ischemia condition; ischemia condition,reduced
same,IL-6 levels,ischemia condition; ischemia condition,reduced
same,MDA,ischemia condition; oxidative stress,decreases
same,SOD,ischemia condition; oxidative stress,decreases
same,HIF stabilisation,HIF,stabilizes HIF
same,erythropoiesis,HIF,induces erythropoiesis
same,hemoglobin,hemoglobin,improves hemoglobin
